How the values were obtained:
Rattus norvegicus [1] = assay: Reduction in paw swelling at 100 mg/kg po dose in rat using adjuvant arthritis test.; assay type: functional
Rattus norvegicus [2] = species on record: Rattus norvegicus; assay: Potency relative to [2-(2,4-Dichloro-phenoxy)-phenyl]-acetic acid in rat adjuvant arthritis test; assay type: functional

Compound | Reduction (Rattus norvegicus [1]) | Relative potency (Rattus norvegicus [2])
COc1cc(Cl)ccc1Oc1ccc(C)cc1CC(=O)O | 23 | 0.7
Cc1ccc(Oc2ccc(CC(C)C)cc2Cl)c(CC(=O)O)c1 | 19 | 0.2
Cc1ccc(Oc2ccc(Cl)c(Cl)c2)c(CC(=O)O)c1 | 9 | 
Cc1ccc(Oc2ccc(C)cc2CC(=O)O)c(Cl)c1 | 35 | 0.4
Cc1cc(Oc2ccc(Cl)cc2CC(=O)O)cc(C)c1Cl | 23 | 
CCCCCCCCc1ccc(Oc2ccc(C)cc2CC(=O)O)c(Cl)c1 | 13% | 
O=C(O)Cc1cc(Cl)ccc1Oc1ccc(O)cc1Cl | 36 | 
COc1ccc(Oc2ccc(Cl)cc2CC(=O)O)c(Cl)c1 | 18 | 
CCCCCCc1ccc(Oc2ccc(C)cc2CC(=O)O)c(Cl)c1 | 5 | 
O=C(O)Cc1ccccc1Oc1ccc([N+](=O)[O-])cc1[N+](=O)[O-] | 0% | 
Cc1ccc(Oc2ccccc2F)c(CC(=O)O)c1 | 24 | 
O=C(O)Cc1cc(Cl)ccc1Oc1ccccc1F | 21 | 
O=C(O)Cc1ccccc1Oc1ccc(Br)cc1Br | 29 | 0.8
O=C(O)Cc1ccccc1Oc1ccc(Cl)c(Cl)c1 | 20 | 
CCCCCCCCCCc1ccc(Oc2ccc(C)cc2CC(=O)O)c(Cl)c1 | 9% | 
O=C(O)C(=O)c1ccccc1Oc1ccc(Cl)cc1Cl | 23 | 0.3
Cc1ccc(Oc2cc(O)c(C)cc2CC(=O)O)c(Cl)c1 | 12 | 
Cc1ccc(Oc2ccccc2C(F)(F)F)c(CC(=O)O)c1 | 0 | 
CC(C(=O)O)c1ccccc1Oc1ccc(Cl)cc1Cl (stereo not drawn) | 0 | 
Cc1cc(Oc2ccc(Cl)cc2CC(=O)O)c(Cl)cc1Cl | 40 | 0.6
Cc1ccc(Oc2c(Cl)cccc2Cl)c(CC(=O)O)c1 | 16 | 

Compound | Reduction (Rattus norvegicus [1]) | Relative potency (Rattus norvegicus [2])
O=C(O)Cc1ccccc1Oc1ccc(Cl)cc1 | 0 | 
Nc1ccc(Oc2ccccc2CC(=O)O)c(N)c1 | 0% | 
Cc1ccc(Oc2cc(C)c(Cl)cc2C)c(CC(=O)O)c1 | 10 | 
Cc1ccc(Oc2ccc(Cl)cc2O)c(CC(=O)O)c1 | 26 | 
Cc1ccc(Oc2ccc(Cl)cc2C)c(CC(=O)O)c1 | 17 | 
CCCCc1ccc(Cl)c(Oc2ccc(C)cc2CC(=O)O)c1 | 5 | 
O=C(O)Cc1ccccc1Oc1c(Cl)cc(Cl)cc1Cl | 23 | 
O=C(O)Cc1ccccc1Oc1cccc(Cl)c1Cl | 51 | 
Cc1ccc(Oc2ccc(Cl)cc2CC(=O)O)c(C)c1 | 22 | 
Cc1ccc(Oc2cc(C)c(Cl)c(C)c2Cl)c(CC(=O)O)c1 | 20 | 
Cc1ccc(Oc2cc(Cl)ccc2Cl)c(CC(=O)O)c1 | 32 | 0.4
Nc1ccc(Oc2ccc(Cl)cc2Cl)c(CC(=O)O)c1 | 0 | 
O=C(O)Cc1cc(Cl)ccc1Oc1cccc(Cl)c1 | 0 | 
O=C(O)Cc1ccccc1Oc1ccccc1C(F)(F)F | 0 | 
O=C(O)Cc1ccccc1Oc1cc(Cl)c(Cl)cc1Cl | 17 | 
Cc1ccc(Oc2c(C)cc(Cl)cc2C)c(CC(=O)O)c1 | 14 | 0.3
Cc1ccc(Oc2ccccc2CC(=O)O)c(Cl)c1 | 21 | 
O=C(O)c1ccccc1Oc1ccc(Cl)cc1Cl | 18 | 
Cc1ccc(Oc2ccc(-c3ccccc3)cc2Cl)c(CC(=O)O)c1 | 23 | 0.2
CCCc1ccc(Oc2ccc(C)cc2CC(=O)O)c(Cl)c1 | 27 | 0.6
Cc1ccc(Oc2ccc(C(C)C)cc2Cl)c(CC(=O)O)c1 | 30 | 1.6

Compound | Reduction (Rattus norvegicus [1]) | Relative potency (Rattus norvegicus [2])
Cc1ccc(Oc2ccccc2Cl)c(CC(=O)O)c1 | 12 | 
Cc1ccc(Oc2ccc(C)cc2CC(=O)O)c(C)c1 | 20 | 
Cc1ccc(Oc2cc(C)c(Cl)cc2Cl)c(CC(=O)O)c1 | 45 | 0.4
Cc1cc(Oc2ccccc2CC(=O)O)c(Cl)cc1Cl | 19 | 
CCc1ccc(Oc2ccc(C)cc2CC(=O)O)c(CC)c1 | 8 | 
CCCCCCCCCCCc1ccc(Oc2ccc(C)cc2CC(=O)O)c(Cl)c1 | 14% | 
O=C(O)Cc1ccccc1Oc1ccccc1 | 0 | 
Cc1ccc(Oc2cccc(Cl)c2C)c(CC(=O)O)c1 | 20 | 0.3
Cc1ccc(Oc2cccc(Cl)c2Cl)c(CC(=O)O)c1 | 13 | 
Cc1ccc(Oc2ccc(Cl)c(C)c2)c(CC(=O)O)c1 | 9 | 
Cc1ccc(Oc2cc(C)c(Cl)cc2C(C)C)c(CC(=O)O)c1 | 3 | 
O=C(O)Cc1cc(Cl)ccc1Oc1ccccc1Cl | 0 | 
Cc1cc(Oc2ccc(Cl)cc2CC(=O)O)c(Cl)c(C)c1Cl | 41 | 1
O=C(O)Cc1cc([N+](=O)[O-])ccc1Oc1ccc(Cl)cc1Cl | 9% | 
O=C(O)Cc1cc(Cl)ccc1Oc1ccccc1 | 0 | 
COc1ccc(Oc2ccc(Cl)cc2Cl)c(CC(=O)O)c1 | 3 | 
O=C(O)Cc1cc(Cl)ccc1Oc1ccc(Cl)cc1Cl | 37 | 1
Cc1cc(Cl)ccc1Oc1ccc(Cl)cc1CC(=O)O | 7 | 
Cc1ccc(Oc2ccc(Cl)cc2CC(=O)O)c(Cl)c1 | 10 | 
O=C(O)Cc1ccc(Oc2ccc(Cl)cc2Cl)cc1 | 2 | 
Cc1ccc(Oc2cc(C)c(Cl)c(C)c2)c(CC(=O)O)c1 | 5 | 0.7

Compound | Reduction (Rattus norvegicus [1]) | Relative potency (Rattus norvegicus [2])
Cc1cc(Cl)c(Oc2ccc(Cl)cc2CC(=O)O)cc1C | 22 | 
O=C(O)Cc1cc([N+](=O)[O-])c([N+](=O)[O-])cc1Oc1ccc(Cl)cc1Cl | 8% | 
CCCCCCCCCc1ccc(Oc2ccc(C)cc2CC(=O)O)c(Cl)c1 | 8% | 
CCCCOc1ccc(CC(=O)O)c(Oc2ccc(C)cc2Cl)c1 | 0 | 
Cc1ccc(Oc2ccccc2CC(=O)O)c(C)c1 | 20 | 
Cc1cc(Cl)ccc1Oc1ccccc1CC(=O)O | 0 | 
Cc1ccc(Oc2ccc(O)cc2CC(=O)O)c(Cl)c1 | 10 | 
Cc1ccc(Oc2cc(C(F)(F)F)ccc2Cl)c(CC(=O)O)c1 | 29 | 3
O=C(O)Cc1ccccc1Oc1ccc([N+](=O)[O-])cc1Cl | 19% | 
Cc1ccc(Oc2ccc(N)cc2CC(=O)O)c(Cl)c1 | 3 | 
O=C(O)Cc1cc(Cl)ccc1Oc1ccc(Cl)cc1 | 21 | 
Cc1ccc(Oc2c(C)cccc2Cl)c(CC(=O)O)c1 | 26 | 0.5
CCOC(=O)Cc1ccccc1Oc1ccc(Cl)cc1Cl | 34 | 0.5
O=C(O)Cc1ccccc1Oc1c(Cl)cccc1Cl | 20 | 
CN(C)c1ccc(Oc2ccc(Cl)cc2Cl)c(CC(=O)O)c1 | 5 | 
O=C(O)Cc1ccccc1Oc1cc(Cl)ccc1Cl | 18 | 
O=C(O)Cc1cc(Cl)ccc1Oc1cc(Cl)ccc1Cl | 40 | 1
Cc1ccc(Oc2ccc(C(F)(F)F)cc2CC(=O)O)c(Cl)c1 | 0 | 
O=C(O)CCc1ccccc1Oc1ccc(Cl)cc1Cl | 0 | 
O=C(O)Cc1ccccc1Oc1ccc(Cl)cc1[N+](=O)[O-] | 4% | 
